Consider five molecules from ChEMBL document CHEMBL1201862, “PubChem BioAssay data set” (2004).

SMILES strings stand for the structures. Calls of active or inactive are those of the source.

A short description of test [1]: Luminescence Cell-Based Dose Response HTS to Identify Activators of Luciferase Translation or Activity in H4 […] Cells. [Related pubchem assays: 1829 (Project Summary), 1814 (Primary HTS)]. It counts as functional.
The test system of a further test is H4. The experiment in a line: Luminescence Cell-Based Dose Response HTS to Identify Activators of 5'UTR Stem-Loop Driven Prion Protein mRNA Translation in H4 Neuroglioblastoma Cells. [Related pubchem assays: 1829 (Project Summary), 1814 (Primary HTS)]. The settings on record: Homo sapiens. It counts as functional.
Test [2] deals with T1, Ubiquitin-conjugating enzyme E2 N (Homo sapiens, UniProt P61088).
T1 sequence (P61088 whole entry): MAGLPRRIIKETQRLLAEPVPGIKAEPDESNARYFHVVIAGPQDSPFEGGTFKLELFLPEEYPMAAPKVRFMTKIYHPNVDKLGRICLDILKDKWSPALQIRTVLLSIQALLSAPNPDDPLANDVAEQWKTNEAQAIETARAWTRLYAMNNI
The format is functional.

The target of test [3] is FAD-linked sulfhydryl oxidase ALR (Homo sapiens, UniProt P55789). The test can be described thus: ALR-catalysed DTT oxidation blockers – biochemical, H2O2 detection, luminescence, cherry-pick, dose response (AID 493248).
FAD-linked sulfhydryl oxidase ALR, sequence (P55789 whole entry): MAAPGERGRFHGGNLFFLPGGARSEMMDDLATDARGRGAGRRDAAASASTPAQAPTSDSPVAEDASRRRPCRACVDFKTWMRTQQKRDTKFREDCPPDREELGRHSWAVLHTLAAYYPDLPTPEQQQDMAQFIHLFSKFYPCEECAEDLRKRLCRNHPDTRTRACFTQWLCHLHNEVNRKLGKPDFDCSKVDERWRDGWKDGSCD
The nature of test [4]: cytotoxicity toward MDA-MB-231 breast cancer cells – cell-based, CellTiter-Glo luminescence, cherry-pick, cytotoxicity control for RAD54 inhibitor project, dose response (AID 651692). It counts as functional.
Test [5] deals with T2, DNA repair and recombination protein RAD54-like (Homo sapiens, UniProt Q92698).
T2 sequence (Q92698 whole entry): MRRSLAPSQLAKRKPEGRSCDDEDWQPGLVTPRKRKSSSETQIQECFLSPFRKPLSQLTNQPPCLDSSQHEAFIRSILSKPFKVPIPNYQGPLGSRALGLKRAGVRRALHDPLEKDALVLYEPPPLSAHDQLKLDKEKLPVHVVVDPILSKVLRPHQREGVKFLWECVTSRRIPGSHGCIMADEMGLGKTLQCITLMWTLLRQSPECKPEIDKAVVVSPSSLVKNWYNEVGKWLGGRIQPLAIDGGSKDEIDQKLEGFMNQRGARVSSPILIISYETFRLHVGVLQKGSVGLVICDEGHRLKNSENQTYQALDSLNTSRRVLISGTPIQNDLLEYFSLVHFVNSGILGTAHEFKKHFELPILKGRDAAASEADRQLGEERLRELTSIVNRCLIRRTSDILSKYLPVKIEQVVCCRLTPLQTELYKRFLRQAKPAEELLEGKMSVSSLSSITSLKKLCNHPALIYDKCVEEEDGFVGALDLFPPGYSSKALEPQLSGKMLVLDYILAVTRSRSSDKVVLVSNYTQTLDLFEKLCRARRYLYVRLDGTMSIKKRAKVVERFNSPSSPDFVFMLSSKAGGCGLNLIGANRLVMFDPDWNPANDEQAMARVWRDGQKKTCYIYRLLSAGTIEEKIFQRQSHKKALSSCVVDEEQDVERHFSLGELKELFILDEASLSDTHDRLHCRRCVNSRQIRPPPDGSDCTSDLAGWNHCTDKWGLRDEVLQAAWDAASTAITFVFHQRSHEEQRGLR
The experiment in a line: RAD54 Holliday junction migration blockers – biochemical, fluorescence, cherry-picked samples, dose series, confirmation (AID 651657). It counts as functional.

Test [6] is described as follows: viability loss in HepG2 liver cells – cell-based, ATP luminescence, cherry-pick, set 6, cytotoxicity control, dose response (AID 1053125). It counts as functional.
Test [7] in a line: cells. Particulars: A549.
Test [8] can be described thus: cells.
Test [9] is described as follows: cells. Particulars: HEK293.
The test system of test [10] is Streptococcus sp. 'group A'. The experiment in a line: Streptococcus pyogenes SK(-)GAS viability under kanamycin – luminescence, BacTiterGlo, confirmation, counter-screen for streptokinase expression inhibitor project, dose response (AID 1900). It counts as functional, organism-based.
For the next test, the target named is T3, Streptokinase A (Streptococcus pyogenes serotype M1, UniProt P10520).
T3 sequence (P10520 whole entry): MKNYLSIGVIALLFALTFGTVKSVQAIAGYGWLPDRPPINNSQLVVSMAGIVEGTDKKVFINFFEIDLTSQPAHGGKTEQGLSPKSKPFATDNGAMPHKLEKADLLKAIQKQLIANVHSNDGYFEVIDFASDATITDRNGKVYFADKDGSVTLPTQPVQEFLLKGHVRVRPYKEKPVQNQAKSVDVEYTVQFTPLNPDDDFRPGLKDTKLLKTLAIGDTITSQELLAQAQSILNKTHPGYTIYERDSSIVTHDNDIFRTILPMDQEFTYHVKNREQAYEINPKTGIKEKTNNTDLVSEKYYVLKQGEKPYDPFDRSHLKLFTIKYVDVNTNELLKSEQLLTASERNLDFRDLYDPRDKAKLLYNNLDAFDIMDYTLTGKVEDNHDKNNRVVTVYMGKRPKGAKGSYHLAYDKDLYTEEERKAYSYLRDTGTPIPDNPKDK
The test can be described thus: viability-normalized secreted streptokinase activity reduction – plasminogen activation absorbance, OD405, dose response (AID 1914).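 Note: secreted streptokinase activity via plasminogen activation per viability signal from cell pellet.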 The format is functional, Streptococcus pyogenes M1 GAS.

Another test concerns Streptococcus. The test can be described thus: GAS UMAA2166 growth inhibition – luminescence, BacTiterGlo, counter-screen for streptokinase expression inhibitor project, dose response (AID 1915).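 Note: potency for reduction of bacterial viability or growth.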 It counts as functional, organism-based.
The nature of test [11]: Intein inhibitors as potential Tuberculosis drugs, a cytotoxicity screen. [Related pubchem assays (depositor defined):AID2221, AID2223, AID434968, AID435010, AID449749, AID449750, AID489010]. The format is functional.
In test [12] the target is T4, Replicative DNA helicase DnaB (Mycobacterium tuberculosis, UniProt P9WMR3).
T4 sequence (P9WMR3 whole entry): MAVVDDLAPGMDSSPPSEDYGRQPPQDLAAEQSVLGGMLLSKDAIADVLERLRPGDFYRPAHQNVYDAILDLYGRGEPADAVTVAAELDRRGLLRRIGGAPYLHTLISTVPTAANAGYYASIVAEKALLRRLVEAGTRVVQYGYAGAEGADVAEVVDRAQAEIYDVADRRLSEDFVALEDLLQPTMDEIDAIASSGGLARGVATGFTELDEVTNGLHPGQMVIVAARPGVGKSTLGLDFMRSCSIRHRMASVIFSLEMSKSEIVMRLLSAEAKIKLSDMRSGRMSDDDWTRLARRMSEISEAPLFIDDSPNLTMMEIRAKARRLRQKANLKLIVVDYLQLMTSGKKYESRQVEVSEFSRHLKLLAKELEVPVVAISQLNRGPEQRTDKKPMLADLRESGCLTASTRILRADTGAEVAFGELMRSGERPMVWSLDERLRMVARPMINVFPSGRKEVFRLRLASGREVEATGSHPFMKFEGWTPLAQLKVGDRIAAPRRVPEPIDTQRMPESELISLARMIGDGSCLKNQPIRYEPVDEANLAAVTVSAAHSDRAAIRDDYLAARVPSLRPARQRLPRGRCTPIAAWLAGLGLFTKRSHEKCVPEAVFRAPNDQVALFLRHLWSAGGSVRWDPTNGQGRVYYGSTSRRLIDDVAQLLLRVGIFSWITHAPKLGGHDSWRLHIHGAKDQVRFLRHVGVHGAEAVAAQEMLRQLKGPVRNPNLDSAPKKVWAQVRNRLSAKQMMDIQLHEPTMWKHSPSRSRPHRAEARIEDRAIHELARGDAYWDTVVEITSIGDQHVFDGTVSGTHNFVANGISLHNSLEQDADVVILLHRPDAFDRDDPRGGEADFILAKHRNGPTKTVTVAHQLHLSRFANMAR
The experiment in a line: DnaB intein splicing inhibitors, dose response, biochemical, cell-free fluorescence (AID 449749). The format is functional.

In the next test the target is T5, Protein RecA (Mycobacterium tuberculosis, UniProt P9WHJ3).
T5 sequence (P9WHJ3 whole entry): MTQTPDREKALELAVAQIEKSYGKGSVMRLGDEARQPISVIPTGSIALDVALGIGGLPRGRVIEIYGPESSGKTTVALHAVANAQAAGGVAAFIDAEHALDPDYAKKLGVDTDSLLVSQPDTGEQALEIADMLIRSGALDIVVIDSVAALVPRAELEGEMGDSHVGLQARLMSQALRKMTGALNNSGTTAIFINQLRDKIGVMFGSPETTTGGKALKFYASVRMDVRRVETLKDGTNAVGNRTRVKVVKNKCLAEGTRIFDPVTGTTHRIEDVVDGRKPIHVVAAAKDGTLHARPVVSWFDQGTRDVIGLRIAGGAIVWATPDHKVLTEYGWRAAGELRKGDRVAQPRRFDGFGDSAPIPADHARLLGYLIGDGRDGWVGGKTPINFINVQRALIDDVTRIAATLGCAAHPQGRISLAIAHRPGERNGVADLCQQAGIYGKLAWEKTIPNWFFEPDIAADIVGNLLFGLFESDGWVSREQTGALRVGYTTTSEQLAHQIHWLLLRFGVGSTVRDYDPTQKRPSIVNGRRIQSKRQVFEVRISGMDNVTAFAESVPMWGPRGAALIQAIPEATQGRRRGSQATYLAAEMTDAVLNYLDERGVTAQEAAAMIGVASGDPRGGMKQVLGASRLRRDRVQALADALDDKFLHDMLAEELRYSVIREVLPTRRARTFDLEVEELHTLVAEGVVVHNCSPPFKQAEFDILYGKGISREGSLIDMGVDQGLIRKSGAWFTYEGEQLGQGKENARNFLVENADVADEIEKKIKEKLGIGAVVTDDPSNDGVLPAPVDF
The test can be described thus: Fluorescence Cell-Free Homogeneous Dose Retest to Identify Inhibitors of RecA-Intein Splicing Activity. [Related pubchem assays (depositor defined):AID2097, AID2223, AID489010, AID492950]. The format is functional.

A further test deals with INS1. The experiment in a line: INS-1E survival protection against cytokine death – cell-based, luminescence, retest, dose response (AID 449756).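 Note: cell death triggered by IL-1 beta plus TNF-alpha plus IFN-gamma mixture; protective hits raise ATP signal compared with cytokine alone wells.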 The format is functional. Particulars: Rattus norvegicus.
The target in another test is T6, Caspase-6 (Homo sapiens, UniProt P55212).
T6 sequence (P55212 whole entry): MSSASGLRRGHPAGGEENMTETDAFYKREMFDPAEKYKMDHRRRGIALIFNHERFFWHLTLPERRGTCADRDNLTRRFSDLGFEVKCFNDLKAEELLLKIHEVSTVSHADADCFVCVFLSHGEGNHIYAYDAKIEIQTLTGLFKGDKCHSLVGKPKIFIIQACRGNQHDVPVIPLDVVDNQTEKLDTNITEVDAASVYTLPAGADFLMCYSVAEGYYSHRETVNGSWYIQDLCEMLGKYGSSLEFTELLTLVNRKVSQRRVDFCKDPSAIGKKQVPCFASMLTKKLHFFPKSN
The test can be described thus: inhibition of CASP6 peptide cleavage – biochemical, VEID-R110 fluorescence, cherry-pick, dose response (AID 720632).

Test [13] concerns the target E3 ubiquitin-protein ligase UHRF1 (Homo sapiens, UniProt Q96T88). The experiment in a line: Counterscreen for inhibitors of 5-meCpG-binding domain protein 2 (MBD2): TRFRET-based biochemical high throughput dose response assay to identify inhibitors of binding of ubiquitin-like with PHD and ring finger domains 1 (UHRF1) to methylated oligonucleotide.
Test [14] addresses T7, NAD-dependent protein deacylase sirtuin-5, mitochondrial (Homo sapiens, UniProt Q9NXA8). The test can be described thus: sirtuin-5 deacylation blockers, concentration series – biochemical, fluorescence imaging, cherry-pick, set 5, dose response (AID 720591).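 Note: desuccinylation of succinyl peptide AMC substrate read as fluorescence after trypsin release; potency of inhibitors that lower fluorescence and may act on trypsin instead.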
For test [15], the target named is T7, NAD-dependent protein deacylase sirtuin-5, mitochondrial. The experiment in a line: blockers of sirtuin-5 peptide desuccinylation – biochemical, fluorescence imaging, cherry-pick, set 6, dose response (AID 720597).
Test [16] is described as follows: inhibitors of non-replicating M. tuberculosis, dose response, luciferase, dry powder (AID 651619). It counts as functional. The settings on record: Mycobacterium tuberculosis.
The nature of test [17]: inhibitors of non-replicating M. tuberculosis, dose response, luciferase, dry powder (AID 651620). The format is functional. Particulars: Mycobacterium tuberculosis.
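Throughout, for CC50: cells exposed to compound for 72 hours before luminescence readout.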

T7 sequence (Q9NXA8 whole entry): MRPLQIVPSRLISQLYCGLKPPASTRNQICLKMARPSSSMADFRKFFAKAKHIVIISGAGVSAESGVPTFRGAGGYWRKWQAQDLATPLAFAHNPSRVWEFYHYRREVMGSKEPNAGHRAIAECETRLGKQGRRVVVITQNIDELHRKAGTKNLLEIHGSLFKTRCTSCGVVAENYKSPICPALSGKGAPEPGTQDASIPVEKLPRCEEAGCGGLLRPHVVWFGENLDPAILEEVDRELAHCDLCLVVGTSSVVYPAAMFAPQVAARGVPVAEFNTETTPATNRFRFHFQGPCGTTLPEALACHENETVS
E3 ubiquitin-protein ligase UHRF1, sequence (Q96T88 whole entry, the tested form may be a part): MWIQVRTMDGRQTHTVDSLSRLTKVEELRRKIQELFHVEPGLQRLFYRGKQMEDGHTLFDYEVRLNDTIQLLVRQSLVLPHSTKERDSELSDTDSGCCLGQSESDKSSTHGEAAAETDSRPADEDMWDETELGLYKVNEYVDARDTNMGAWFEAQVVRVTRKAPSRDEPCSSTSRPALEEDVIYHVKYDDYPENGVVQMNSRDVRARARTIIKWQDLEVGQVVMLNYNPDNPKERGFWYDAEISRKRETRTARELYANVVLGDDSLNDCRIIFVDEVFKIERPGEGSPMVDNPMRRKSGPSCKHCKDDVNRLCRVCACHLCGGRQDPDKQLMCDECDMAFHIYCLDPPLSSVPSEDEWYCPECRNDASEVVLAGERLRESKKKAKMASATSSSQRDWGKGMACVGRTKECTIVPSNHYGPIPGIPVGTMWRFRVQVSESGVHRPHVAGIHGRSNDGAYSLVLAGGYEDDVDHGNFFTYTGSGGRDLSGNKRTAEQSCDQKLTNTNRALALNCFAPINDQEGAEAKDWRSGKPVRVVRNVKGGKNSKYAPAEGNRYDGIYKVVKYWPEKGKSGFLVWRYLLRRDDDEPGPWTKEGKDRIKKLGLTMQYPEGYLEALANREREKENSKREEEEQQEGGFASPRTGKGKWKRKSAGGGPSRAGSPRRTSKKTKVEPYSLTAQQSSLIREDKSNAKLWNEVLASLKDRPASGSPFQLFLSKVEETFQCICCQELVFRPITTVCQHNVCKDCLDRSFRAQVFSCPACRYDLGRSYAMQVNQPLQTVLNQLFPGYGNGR

`Cc1cc2oc3cc(NCCC4CCCN4C)ccc3c(=O)c2cc1C` (stereo not drawn): the EC50 was 0.113 µM (active) in test [1] and 45.4 µM (active) in the test on H4. Also, in [2], the IC50 is > 20 µM (inactive). In addition, the half-maximal activity concentration (AC50) in test [3] is 0.287 µM (active); in [4], 22.6 µM (active); in [5] it was 13.3 µM (active); in test [6], 11.2 µM (active); in the test “cells [7]” it was 9.92 µM (active); in “cells [8]”, 35 µM (active). The AC50 in the test “cells [9]” was 12.4 µM (active).
On to `CCN(CC)CCNC(=O)c1ccc2c(c1NCCO)C(=O)c1ccccc1C2=O`, for which the EC50 was 12.9 µM (active) in test [10], > 150 µM (not active) at Streptokinase A, > 150 µM (not active) in the test with Streptococcus and 0.524 µM (active) on Protein RecA. The CC50 in [11] is 26.2 µM (active). Also, the half-maximal activity concentration (AC50) in test [12] is 4.5 µM (active); in the test on INS1, 4.09 µM (active); on Caspase-6, 5.96 µM (active). Besides, the IC50 in test [13] was > 43.8 µM (inactive).
Turning to `COc1ccc(C(C(=O)NC(C)(C)C)N(Cc2ccco2)C(=O)CCC(=O)Nc2cc(C)on2)cc1` (stereo not drawn), the AC50 in test [14] is 23.5 µM (active).
For the molecule `COCC(=O)NC[C@@H]1N[C@@H](CO)[C@H]1c1ccc(C2=CCCCC2)cc1`, the AC50 in test [15] was > 30 µM (inactive).
Regarding `[N-]=[N+]=NCCOCCNC(=O)CCCOc1ccc(-c2nnc(SCc3ccccn3)o2)cc1`, the concentration for an effect of 90% (IC90) in test [16] and in test [17] was 31 µM (active) each time.
